For assay [1], the target named is T1, ITK (Homo sapiens, UniProt Q08881).
T1 construct: purchased Signalchem I13-11G-10
T1 sequence (Q08881 1-620): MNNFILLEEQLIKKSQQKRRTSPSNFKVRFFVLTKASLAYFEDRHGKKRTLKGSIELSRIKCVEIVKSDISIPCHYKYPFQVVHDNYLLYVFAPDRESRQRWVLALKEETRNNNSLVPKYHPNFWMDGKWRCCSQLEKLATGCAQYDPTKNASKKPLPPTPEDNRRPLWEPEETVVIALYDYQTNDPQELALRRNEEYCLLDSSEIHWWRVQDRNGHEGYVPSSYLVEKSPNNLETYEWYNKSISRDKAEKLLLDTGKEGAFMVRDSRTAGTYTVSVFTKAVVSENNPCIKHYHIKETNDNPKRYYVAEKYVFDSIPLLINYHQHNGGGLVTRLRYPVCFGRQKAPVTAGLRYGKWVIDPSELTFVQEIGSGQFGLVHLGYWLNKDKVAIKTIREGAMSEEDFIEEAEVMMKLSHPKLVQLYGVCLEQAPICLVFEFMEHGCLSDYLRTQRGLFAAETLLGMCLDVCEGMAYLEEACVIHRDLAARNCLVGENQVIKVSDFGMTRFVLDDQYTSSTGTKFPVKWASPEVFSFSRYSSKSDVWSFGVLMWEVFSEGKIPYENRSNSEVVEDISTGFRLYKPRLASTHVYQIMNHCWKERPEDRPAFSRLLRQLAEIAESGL
Kind of assay: Inhibitory activity against ITK, ADP-Glo Kinase system (Promega). The format is biochemical. Here is the method: (§1) Inhibitory activities against BTK and ITK were measured for the compounds prepared in the above Examples as follows.
(§2) The inhibitory activities against BTK and ITK were evaluated using 'ADP-Glo™ Kinase system' (Promega Corporation). In the case of this evaluation method, activation was measured by quantifying the amount of ADP produced during the kinase reaction, which was utilized to measure the inhibitory activities against BTK and ITK.
(§3) Specifically, the inhibitory activities against BTK and ITK were measured using BTK kinase (Signalchem, B10-10H), ITK kinase (Signalchem, I13-11G-10), and ADP-Glo kinase assay kit (Promega, V9102). Recombinant purified human BTK and ITK were diluted with 1 x kinase reaction buffer (40 mM Tris-Cl, pH 7.5, 20 mM MgCl2, 0.1 mg/mL BSA, 2 mM MnCl2 and 50 uM DTT) and added to a 96 well plate (ITK: final concentration of 4 ng per reaction/BTK: final concentration of 10 ng per reaction). The compounds prepared in the previous Examples were treated so as to be finally a 1% DMSO aqueous solution, and a substrate cocktail containing ATP (1mM or Km ATP (BTK: 10 uM /ITK: 25uM)) and 0.2 ug/ul of Poly (Glu4,Tyr1) peptide (BTK and ITK final concentration) in the total 25 uL reactants was added to a 96-well plate to initiate enzymatic reaction. After incubation (30°C) for 1 hour, equivalent volume (25 uL per reaction) of ADP Glo was added, and incubated (30°C) for 40 minutes at room temperature. Then, a kinase detection reagent (45 uL per reaction) was added, and incubated (30°C) for 30 minutes at room temperature. The kinase activity was measured by chemiluminescence according to the instructions of ADP Glo kinase assay kit, and the inhibitory activity of the compounds according to the present disclosure was calculated. For the analysis of the results of each compound, Microsoft Excel was used, and IC50 values were calculated by GraphPad Prism software.
(ADP-Glo first removes unused ATP, then detects ADP through luciferase.)

The target in assay [2] is T2, BTK (Homo sapiens, UniProt Q06187).
T2 construct: purchased Signalchem B10-10H
T2 sequence (Q06187 whole entry): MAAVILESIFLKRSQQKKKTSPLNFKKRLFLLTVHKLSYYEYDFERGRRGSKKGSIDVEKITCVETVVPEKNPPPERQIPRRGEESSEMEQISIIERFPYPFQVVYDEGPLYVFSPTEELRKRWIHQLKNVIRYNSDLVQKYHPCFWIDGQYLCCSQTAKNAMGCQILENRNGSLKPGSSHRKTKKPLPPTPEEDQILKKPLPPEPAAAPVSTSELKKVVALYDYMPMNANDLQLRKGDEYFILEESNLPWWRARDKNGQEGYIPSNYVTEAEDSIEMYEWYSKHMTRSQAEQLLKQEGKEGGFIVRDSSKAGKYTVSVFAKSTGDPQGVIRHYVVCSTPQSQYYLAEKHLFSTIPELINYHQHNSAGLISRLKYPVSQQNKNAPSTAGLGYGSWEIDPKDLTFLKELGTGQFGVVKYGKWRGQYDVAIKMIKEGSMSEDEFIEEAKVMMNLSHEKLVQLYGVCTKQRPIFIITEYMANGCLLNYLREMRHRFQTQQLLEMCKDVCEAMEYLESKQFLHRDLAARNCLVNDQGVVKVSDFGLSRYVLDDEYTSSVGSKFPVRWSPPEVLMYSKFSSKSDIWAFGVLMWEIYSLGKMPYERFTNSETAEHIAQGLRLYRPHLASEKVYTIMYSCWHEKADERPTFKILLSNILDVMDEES
Description: Inhibitory activity against BTK, ADP-Glo Kinase system (Promega). It counts as biochemical. Here is the method:
as §1, §2, §3

Setting [3] is: 1mM ATP, read-out: ITK IC50(nM) 1mM ATP.
Setting [4] is: 1mM ATP, read-out: BTK IC50(nM) 1mM ATP.
[5] abbreviates: Km ATP (ITK: 25uM), read-out: ITK IC50(nM) Km ATP.
The mark [6] stands for this setting: Km ATP (BTK: 10 uM), read-out: BTK IC50(nM) Km ATP.

Among the data in EP4707277A1, “NOVEL HETEROCYCLIC AMINE DERIVATIVES AND PHARMACEUTICAL COMPOSITION COMPRISING SAME” (Daewoong Pharmaceutical Co., Ltd., priority 2023, dated 2024) are IC50 values, retold here.

Where two headings read alike, the source gives them in different places. Where only a bound is given, the exact number is not on record here.

In the case of `C=CC(=O)Nc1cccc(-c2nc(Nc3ncc(C)s3)cc3c2ccn3CC(C)C)c1C` [Example 62, N-(3-(1-isobutyl-6-((5-methylthiazol-2-yl)amino)-1H-pyrrolo[3,2-c]pyridin-4-yl)-2-methylphenyl)acrylamide], the IC50 is 20 to 100 nM in assay [1] (setting [3]) and no more than 20 nM in assay [2] (setting [4]).
Consider `C=CC(=O)N1CC=C(c2nc(Nc3ncc(C)s3)cc3c2ccn3CC2CCC2)CC1` [Example 7, 1-(4-(1-(cyclobutylmethyl)-6-((5-methylthiazol-2-yl)amino)-1H-pyrrolo[3,2-c]pyridin-4-yl)-3,6-dihydropyridin-1(2H)-yl)prop-2-en-1-one], for which the 50% inhibitory concentration (IC50) in assay [1] (setting [5]) and in assay [2] (setting [6]) was no more than 20 nM each time.
On to `C=CC(=O)Nc1ccc(F)c(-c2nc(Nc3ncc(C)s3)cc3c2ccn3CC(F)(F)F)c1` [Example 78, N-(4-fluoro-3-(6-((5-methylthiazol-2-yl)amino)-1-(2,2,2-trifluoroethyl)-1H-pyrrolo[3,2-c]pyridin-4-yl)phenyl)acrylamide], for which the figures for the IC50 in assay [1] (setting [3]) and in assay [2] (setting [4]) were 20 to 100 nM and no more than 20 nM, respectively.
For `C=CC(=O)Nc1cccc(-c2nc(Nc3ncc(C)s3)cc3c2ccn3C(C)C)c1C` [Example 58, N-(3-(1-isopropyl-6-((5-methylthiazol-2-yl)amino)-1H-pyrrolo[3,2-c]pyridin-4-yl)-2-methylphenyl)acrylamide] the same measures were no more than 20 nM and no more than 20 nM.
In the case of `C=CC(=O)N1CC[C@H](Oc2nc(Nc3ncc(C)s3)cc3c2ccn3[C@H](C)C(F)(F)F)C1` [Example 213, 1-((S)-3-((6-((5-methylthiazol-2-yl)amino)-1-((R)-1,1,1-trifluoropropan-2-yl)-1H-pyrrolo[3,2-c]pyridin-4-yl)oxy)pyrrolidin-1-yl)prop-2-en-1-one], the IC50 in assay [1] (setting [3]) and in assay [2] (setting [4]) was no more than 20 nM throughout.
With `C=CC(=O)N1C2C=C(c3nc(Nc4ncc(C)s4)cc4c3ccn4C)CC1CC2` (stereo not shown) [Example 28, 1-(3-(1-methyl-6-((5-methylthiazol-2-yl)amino)-1H-pyrrolo[3,2-c]pyridin-4-yl)-8-azabicyclo[3.2.1]oct-2-en-8-yl)prop-2-en-1-one], the IC50 in assay [1] (setting [3]), in assay [1] (setting [5]), in assay [2] (setting [4]) and in assay [2] (setting [6]) was no more than 20 nM throughout.
Turning to `C=CC(=O)N1CC[C@@H](Oc2nc(Nc3ncc(C)s3)cc3c2ccn3CC2CC2)C1` [Example 144, (R)-1-(3-((1-(cyclopropylmethyl)-6-((5-methylthiazol-2-yl)amino)-1H-pyrrolo[3,2-c]pyridin-4-yl)oxy)pyrrolidin-1-yl)prop-2-en-1-one], the IC50 in assay [1] (setting [3]) and in assay [2] (setting [4]) was greater than 500 nM each time.
In the case of `C=CC(=O)N1CC[C@H](Oc2nc(Nc3ncc(C)s3)cc3c2ccn3CCC(C)C)C1` [Example 114, (S)-1-(3-((1-isopentyl-6-((5-methylthiazol-2-yl)amino)-1H-pyrrolo[3,2-c]pyridin-4-yl)oxy)pyrrolidin-1-yl)prop-2-en-1-one], the IC50 in assay [1] (setting [3]) and in assay [2] (setting [4]) was no more than 20 nM each time.
`C=CC(=O)N1CCC12CC(Oc1nc(Nc3ncc(C)s3)cc3c1ccn3C)C2` (stereo not shown) [Example 136, 1-(6-((1-methyl-6-((5-methylthiazol-2-yl)amino)-1H-pyrrolo[3,2-c]pyridin-4-yl)oxy)-1-azaspiro[3.3]heptan-1-yl)prop-2-en-1-one]: the IC50 in assay [1] (setting [3]) and in assay [2] (setting [4]) was no more than 20 nM throughout.
For the compound `C=CC(=O)N1CCC[C@H](Oc2nc(Nc3ncc(C)s3)cc3c2ccn3CCC)C1` [Example 160, (S)-1-(3-((6-((5-methylthiazol-2-yl)amino)-1-propyl-1H-pyrrolo[3,2-c]pyridin-4-yl)oxy)piperidin-1-yl)prop-2-en-1-one], the IC50 in assay [1] (setting [3]) and in assay [2] (setting [4]) was 100 to 500 nM throughout.
On to `C=CC(=O)N1CC[C@H](Oc2nc(Nc3nccc(OC)n3)cc3c2ccn3C(C)C)C1` [Example 183, (S)-1-(3-((1-isopropyl-6-((4-methoxypyrimidin-2-yl)amino)-1H-pyrrolo[3,2-c]pyridin-4-yl)oxy)pyrrolidin-1-yl)prop-2-en-1-one], for which the IC50 in assay [1] (setting [3]) and in assay [2] (setting [4]) was greater than 500 nM each time.
Regarding `C=CC(=O)Nc1cc(-c2nc(Nc3ncc(C)s3)cc3c2ccn3CC(F)(F)F)c(F)cc1F` [Example 77, N-(2,4-difluoro-5-(6-((5-methylthiazol-2-yl)amino)-1-(2,2,2-trifluoroethyl)-1H-pyrrolo[3,2-c]pyridin-4-yl)phenyl)acrylamide], the figures for the 50% inhibitory concentration (IC50) in assay [1] (setting [3]) and in assay [2] (setting [4]) were 20 to 100 nM and no more than 20 nM, respectively.
As to `C=CC(=O)N1CC=C(c2nc(Nc3ncc(C)s3)cc3c2ccn3C2CC2(F)F)CC1` (stereo not shown) [Example 20, 1-(4-(1-(2,2-difluorocyclopropyl)-6-((5-methylthiazol-2-yl)amino)-1H-pyrrolo[3,2-c]pyridin-4-yl)-3,6-dihydropyridin-1(2H)-yl)prop-2-en-1-one], the IC50 in assay [1] (setting [5]) and in assay [2] (setting [6]) was no more than 20 nM throughout.
As to `C=CC(=O)N1C[C@@H](F)[C@H](Oc2nc(Nc3ncc(C)s3)cc3c2ccn3CC(C)C)C1` [Example 106, 1-((3R,4R)-3-fluoro-4-((1-isobutyl-6-((5-methylthiazol-2-yl)amino)-1H-pyrrolo[3,2-c]pyridin-4-yl)oxy)pyrrolidin-1-yl)prop-2-en-1-one], the IC50 in assay [1] (setting [3]) and in assay [2] (setting [4]) was no more than 20 nM throughout.
In the case of `C=CC(=O)N1C2C=C(c3nc(Nc4ncc(C)s4)cc4c3ccn4C(C)C)CC1CCC2` (stereo not shown) [Example 37, 1-(3-(1-isopropyl-6-((5-methylthiazol-2-yl)amino)-1H-pyrrolo[3,2-c]pyridin-4-yl)-9-azabicyclo[3.3.1]non-2-en-9-yl)prop-2-en-1-one], the 50% inhibitory concentration (IC50) in assay [1] (setting [3]) and in assay [2] (setting [4]) was no more than 20 nM each time.
For `C=CC(=O)N1CC=C(c2nc(Nc3ncc(C)s3)cc3c2ccn3CC2CC2)CC1` [Example 4, 1-(4-(1-(cyclopropylmethyl)-6-((5-methylthiazol-2-yl)amino)-1H-pyrrolo[3,2-c]pyridin-4-yl)-3,6-dihydropyridin-1(2H)-yl)prop-2-en-1-one], the IC50 in assay [1] (setting [3]) is 20 to 100 nM; in assay [1] (setting [5]) it was no more than 20 nM; in assay [2] (setting [4]) it was 20 to 100 nM; in assay [2] (setting [6]) it was no more than 20 nM.
Regarding `C=CC(=O)N1CC[C@H](Oc2nc(Nc3ncc(C)s3)cc3c2ccn3CC(F)(F)F)C1` [Example 205, (S)-1-(3-((6-((5-methylthiazol-2-yl)amino)-1-(2,2,2-trifluoroethyl)-1H-pyrrolo[3,2-c]pyridin-4-yl)oxy)pyrrolidin-1-yl)prop-2-en-1-one], the half-inhibitory concentration (IC50) in assay [1] (setting [3]) and in assay [2] (setting [4]) was no more than 20 nM in each case.
With `C=CC(=O)Nc1cc(-c2nc(Nc3ncc(C)s3)cc3c2ccn3C(C)C)c(F)cc1F` [Example 60, N-(2,4-difluoro-5-(1-isopropyl-6-((5-methzylthiazol-2-yl)amino)-1H-pyrrolo[3,2-c]pyridin-4-yl)phenyl)acrylamide], the IC50 in assay [1] (setting [3]), in assay [1] (setting [5]), in assay [2] (setting [4]) and in assay [2] (setting [6]) was no more than 20 nM each time.
Turning to `C=CC(=O)N1CCC[C@@H](COc2nc(Nc3ncc(C)s3)cc3c2ccn3CC(C)C)C1` [Example 214, (R)-1-(3-(((1-isobutyl-6-((5-methylthiazol-2-yl)amino)-1H-pyrrolo[3,2-c]pyridin-4-yl)oxy)methyl)piperidin-1-yl)prop-2-en-1-one], the figures for the half-inhibitory concentration (IC50) in assay [1] (setting [3]) and in assay [2] (setting [4]) were greater than 500 nM and 20 to 100 nM, respectively.
Turning to `C=CC(=O)N1CC=C(c2nc(Nc3ncc(C)s3)cc3c2ccn3C)CC1` [Example 1, 1-(4-(1-methyl-6-((5-methylthiazol-2-yl)amino)-1H-pyrrolo[3,2-c]pyridin-4-yl)-3,6-dihydropyridin-1(2H)-yl)prop-2-en-1-one], the IC50 in assay [1] (setting [5]) and in assay [2] (setting [6]) was no more than 20 nM in each case.

As a reminder, the IC50 is the midpoint of a concentration-inhibition curve.
